From patent publication US8901337B2, “Metal complexes having dual histone deacetylase inhibitory and DNA-binding activity” (Royal College of Surgeons in Ireland, priority 2009, dated 2014)
Read-outs that look alike come from different tables or passages of the source.

Assays:
[1] = test system: cisplatin resistant ovarian cancer cell line A2780 cisR; assay: MTS in vitro cytotoxicity, A2780 cisR; assay type: cell-based, human; settings: 72 hours; for IC50: MTS
Experimental: (§1) Cells were cultured in the appropriate media. […] In order to retain resistance 1 μM cisplatin was added to the media of the A2780 cisR cells every third passage. A2780 cisR cells are resistant to cisplatin through a combination of decreased uptake, enhanced DNA repair/tolerance, and elevated reduced glutathione levels
(§2) All cells were kept in a humidified atmosphere with 5% CO2 at 37° C.; cells from confluent monolayers were removed from flasks by trypsin/EDTA solution and their viability determined by the trypan blue exclusion test.
(§3) Cell growth was determined by the [3-(4,5-dimethylthiazol-2-yl)-5-(3-carboxymethoxyphenyl)-2-(4-sulfophenyl)-2H-tetrazolium, inner salt, (MTS test, Promega, Southampton, UK), a colorimetric assay based on the ability of the viable cells to reduce a soluble yellow tetrazolium salt to blue formazan. 10,000 ovarian cancer cells or 3,000 fibroblast cells for example were seeded per well onto 96-well plates in 100 μl of the appropriate culture medium. 24 hr after sowing the cells, the media was removed and the cells were treated by adding 100 μl of the compound media solutions at the appropriate concentrations. cis-[Pt(NH3)2(malSAHA−2H)], cisplatin and cis-[Pt(NH3)2(mal)] were prepared freshly in cell culture media. […] The maximum percentage of dmso present in any well was less than 0.1% (v/v). cis-[Pt(NH3)2(malBel—2H)], belinostat and malbelinostat were freshly prepared in dimethyl formamide (DMF) and diluted in culture media prior to the MTS assay. The maximum percentage of DMF present in any well was 0.5% (v/v). A range of concentrations between 1 μM and 100 μM was used.
(§4) After 72 hr of treatment, 20 μl of the MTS reagent was added to each well and the plates incubated for 2 hr at 37° C. […] The percentages of surviving cells relative to untreated controls were determined.

[2] = test system: ovarian cancer cell line A2780 P; assay: MTS in vitro cytotoxicity, A2780 P; assay type: cell-based, human; settings: 72 hours; for IC50: MTS
Experimental: as §1, §2, §3, §4

[3] = test system: non-tumorigenic human dermal fibroblast cell line (NHDF); assay: MTS in vitro cytotoxicity, NHDF; assay type: cell-based; settings: 72 hours; for IC50: MTS
Experimental: In addition Normal Neonatal Human Dermal Fibroblast, NHDF, cells were cultured in Fibroblast Basal Medium (FBM®, Clonetics, Walkersville, USA) supplemented with hFGF-B, insulin, 5% FBS and gentamicin/amphotericin-B (FGM®-2 SingleQuots, Clonetics, Walkersville, USA).
as §2, §3, §4

[4] = test system: A2780 P (ovarian cancer cells); assay: Cellular uptake of Pt (FAAS), A2780 P; assay type: cell-based, human; settings: for Uptake of Pt complexes into A2780 P: 10 μM
Experimental: Cellular uptake of Pt compounds was measured in SKBR, SW480, A549, A2780P and CH1 cells. […] The cell monolayers at the end of the incubation with the Pt complexes were washed (twice) with ice-cold phosphate buffered saline (PBS), trypsinized and harvested into cold (4° C.) PBS. Cell suspensions were centrifuged and the pellets were stored in PBS at −80° C. until assayed. Afterward, the pellets were digested by high pressure microwave mineralization and Pt content was determined by flameless atomic absorption spectrophotometry (FAAS). The results of cellular Pt uptake were corrected for adsorption effects. All experiments were made in triplicate.^17

[5] = test system: A2780 P ovarian cancer cells; assay: Cell cycle progression, flow cytometry (propidium iodide); assay type: cell-based, human; settings: 72 hr
Experimental: Both floating and attached cells were collected by centrifugation, washed twice in ice-cold PBS, pH 7.4, harvested by scraping with a rubber policeman, and then collected by centrifugation. The effect of drug treatment on cell cycle progression was determined using flow cytometric analysis according to the method of Nunez (2001).^21 Briefly, cell suspensions were fixed and permeabilised by vigorous addition of nine volumes of ice-cold 70% (v/v) ethanol and stored at −20° C. for a minimum of 24 h, prior to analysis. Cells at a density of approximately 1×10^6 were re-suspended in 800 μl of propidium iodide staining solution (20 μg/ml propidium iodide and 200 μg/ml RNase A in PBS, pH 7.4) and incubated in the dark at room temperature for 30 min. The percentage of cells in the sub-G1, G0/G1, S and G2/M phases of the cell cycle was determined over a range of concentrations and time points, and analysed from at least three independent experiments using Cell Quest™ software (Becton Dickinson).

[6] = test system: SKBR (breast cancer cells); assay: Cellular uptake of Pt (FAAS), SKBR; assay type: cell-based; settings: 72 hours treatment; for Uptake of Pt complexes into SKBR: 10 μM
Experimental: Cellular uptake of Pt compounds was measured in SKBR, SW480, A549, A2780P and CH1 cells. The cells were seeded in 60 mm tissue culture dishes with 10 mL of their respective medium and after overnight incubation, the cells were treated with the Pt complexes for 72 h at 10 μM concentration. The cell monolayers at the end of the incubation with the Pt complexes were washed (twice) with ice-cold phosphate buffered saline (PBS), trypsinized and harvested into cold (4° C.) PBS. Cell suspensions were centrifuged and the pellets were stored in PBS at −80° C. until assayed. Afterward, the pellets were digested by high pressure microwave mineralization and Pt content was determined by flameless atomic absorption spectrophotometry (FAAS). The results of cellular Pt uptake were corrected for adsorption effects. All experiments were made in triplicate.^17

[7] = test system: liver cell lines (Hep-G2); assay: MTS in vitro cytotoxicity, Hep-G2; assay type: cell-based; settings: 72 hours, Table 1, read-out: IC50 values against Hep-G2
Experimental: as §2, §3, §4

[8] = Table 5, read-out: IC50 (μM) ± S.E.M. against A2780CisR
[9] = Table 5, read-out: IC50 (μM) ± S.E.M. against A2780P
[10] = Table 5, read-out: IC50 (μM) ± S.E.M. against NHDF
[11] = Table 1, read-out: IC50 values against A2780cisR
[12] = Table 1, read-out: IC50 values against A2780 P
[13] = Table 1, read-out: IC50 values against NHDF

Compound | IC50 [1, 8] [µM] | IC50 [2, 9] [µM] | IC50 [3, 10] [µM] | Uptake of Pt complexes into A2780 P ([4]; 24 hours treatment) [pmol Pt/2 × 10^6 cell] | % G0/G1 ± S.E.M. ([5]; concentration equal to IC50) [%] | % G2/M ± S.E.M. ([5]; concentration equal to IC50) [%] | % S ± S.E.M. ([5]; concentration equal to IC50) [%] | % Sub-G1 ± S.E.M. ([5]; concentration equal to IC50) [%] | % G0/G1 ± S.E.M. ([5]; concentration equal to IC75) [%] | % G2/M ± S.E.M. ([5]; concentration equal to IC75) [%] | % S ± S.E.M. ([5]; concentration equal to IC75) [%] | % Sub-G1 ± S.E.M. ([5]; concentration equal to IC75) [%] | IC50 [1, 11] [µM] | IC50 [2, 12] [µM] | IC50 [3, 13] [µM] | Uptake of Pt complexes into A2780 P ([4]; 72 hours treatment) [pmol Pt/2 × 10^6 cell] | Uptake of Pt complexes into SKBR [6] [pmol Pt/2 × 10^6 cell] | IC50 [7] [µM] | other results
[NH2][Pt]1([NH2])[O]C(=O)C(Cc2ccc(NS(=O)(=O)c3ccc(/C=C/C(=O)NO)cc3)cc2)C(=O)[O]1 [cis-[Pt(NH3)2(malBel−2H)], cis-[Pt(NH3)2(malBel−2H)].1.5H2O] | 11.7 ± 0.9 | 7.6 ± 0.3 | 33.9 ± 2 | 154 ± 10 | 16.16 ± 0.88 | 7.91 ± 0.03 | 7.21 ± 0.11 | 60.86 ± 0.26 | 11.75 ± 0.17 | 8.04 ± 0.72 | 5.59 ± 0.36 | 67.67 ± 0.43 |  |  |  |  |  |  | activity against cisplatin resistant A2780 cisR (in words) ([1]; cytotoxicity): retains activity against A2780 cisR cell line; selectivity for A2780 P over normal cell line NHDF ([2]; cytotoxicity): displays selectivity for A2780 P cancer cell line over representative normal cell line NHDF; uptake by cancer cells (in words) ([4]; 24 hours treatment, A2780 P and A2780 cisR): is taken up by cancer cells after 24 hours treatment; sub-G1 accumulation (in words) ([5]; A2780 P): dose dependent increase in sub-G1 accumulation compared to control cells
N.N.[Cl][Pt][Cl] [cisplatin, cis-[Pt^II(NH3)2Cl2], reference compound] | 9.8 ± 1 | 1.3 ± 0.1 | 2.4 ± 0.6 | 290 ± 35 | 18.58 ± 0.58 | 5.44 ± 0.04 | 5.33 ± 0.13 | 64.16 ± 0.74 | 20.88 ± 0.14 | 4.73 ± 0.13 | 5.81 ± 0.30 | 61.81 ± 0.39 | 28.5 ± 1.5 | 2.9 ± 0.1 | 10 ± 1.8 | 612.25 ± 107.75 | 876.25 ± 70.55 | 39.8 ± 3.5 | 
[NH2][Pt]1([NH2])[O]C(=O)C(Cc2ccc(NC(=O)CCCCCCC(=O)NO)cc2)C(=O)[O]1 [cis-[Pt(NH3)2(malSAHA−2H)], cis-[Pt(NH3)2(malSAHA−2H)].3H2O] |  |  |  |  |  |  |  |  |  |  |  |  | 70 ± 3.5 | 9 ± 3.1 | 83 ± 7.6 | 5535 ± 865 | 6568 ± 312 | 47.8 ± 4 | selectivity for cancer cell lines over normal cell line NHDF ([3]; cytotoxicity): displays selectivity for cancer cell lines over representative normal cell line NHDF; uptake by cancer cells compared with cisplatin (in words) ([6]; SKBR, SW480, A549, A2780 P, CH1): taken up by cancer cells after 72 hours treatment and to a greater extent than cisplatin
